Results from article PMC9616876, “Structures of the CcmABCD heme release complex at multiple states” (Nature Communications, 2022).

Assays:
[1] = molecular target: T1, CcmABCD (ATP-binding site in CcmA) (Escherichia coli, UniProt P33931); test: cryo-EM structure
T1 construct: full-length CcmA2B2C1D1, N-terminal His6 on CcmA; CcmABCDE operon co-expressed in E. coli BL21(DE3), CcmE not observed in purified complex; DDM-solubilised membranes; with Heme exporter protein B; Heme exporter protein C; Heme exporter protein D

[2] = molecular target: the molecule itself; test: cryo-EM structure; CcmABCD purified in DDM (20 mM Tris-HCl pH 7.5, 50 mM NaCl, 0.03% DDM), ~12 mg/ml; apo, with 3.5 mM MgCl2 and AMP-PNP, or with 3.5 mM MgCl2, ATP, heme b and 1 mM DTT; closed, semi-open and open NBD states

Nc1ncnc2c1ncn2[C@@H]1O[C@H](COP(=O)(O)OP(=O)(O)NP(=O)(O)O)[C@@H](O)[C@H]1O [AMP-PNP]
cryo-EM structure ([1]; 3.5 mM AMP-PNP, 3.5 mM MgCl2, two AMP-PNP, closed NBD state): CcmABCD bound with AMP-PNP in closed NBD state

Nc1ncnc2c1ncn2[C@@H]1O[C@H](COP(=O)(O)OP(=O)(O)OP(=O)(O)O)[C@@H](O)[C@H]1O [ATP]
cryo-EM structure ([1]; 3.5 mM ATP, 3.5 mM MgCl2, 3.5 mM heme b, 1 mM DTT, two ATP in closed NBD state (7F04), one ATP in semi-open NBD state (7VFP), ATPase activity also measured): CcmABCD bound with heme b and double ATPs in closed NBD state

O=P(O)(O)O [inorganic phosphate]
cryo-EM structure ([1]; no nucleotide added, one phosphate per CcmA, closed NBD state, membranes purified in potassium phosphate buffer): each CcmA binds one inorganic phosphate

B1: CcmA (natural protein, E. coli BL21 (DE3))
chain: MGMLEARELLCERDERTLFSGLSFTLNAGEWVQITGSNGAGKTTLLRLLTGLSRPDAGEVLWQGQPLHQVRDSYHQNLLWIGHQPGIKTRLTALENLHFYHRDGDTAQCLEALAQAGLAGFEDIPVNQLSAGQQRRVALARLWLTRATLWILDEPFTAIDVNGVDRLTQRMAQHTEQGGIVILTTHQPLNVAESKIRRISLTQTRAA
notes: The whole CcmABCDE gene stretch was amplified by PCR from the genome; also called hexahistidine-tagged CcmA; NBD; not shown: His6, N-terminal, kept
stoichiometry N [2]: 2

B2: CcmB (natural protein, E. coli BL21 (DE3))
chain: MMFWRIFRLELRVAFRHSAEIANPLWFFLIVITLFPLSIGPEPQLLARIAPGIIWVAALLSSLLALERLFRDDLQDGSLEQLMLLPLPLPAVVLAKVMAHWMVTGLPLLILSPLVAMLLGMDVYGWQVMALTLLLGTPTLGFLGAPGVALTVGLKRGGVLLSILVLPLTIPLLIFATAAMDAASMHLPVDGYLAILGALLAGTATLSPFATAAALRISIQ
notes: CcmB, integral membrane protein with six transmembrane helices, gene amplified from the E. coli BL21 (DE3) genome; also called CcmB1; CcmB2
stoichiometry N [2]: 2
